Measurements: US20050137807A1, “Method of visualization of the ADME properties of chemical substances” (priority 2003, published 2005)
Values after ≈ are worked out from the molar mass of the structure shown.

target: human serum albumin (Homo sapiens, UniProt P02768); test: binding constant to human serum albumin (TRANSIL technology); conditions: human
Source text: The effective molecular weight (MW) is obtained simply from the respective empirical formula of the substance. The waters solubilities and the typical administered dosages of these commercially available products are furthermore known from the literature.
The ADME maps in FIGS. 5 to 10 show by way of example a selection of commercially available pharmaceutical substances. The substance names and the associated experimental measurement values for their physicochemical properties are summarised in Table 1.

human serum albumin, sequence (P02768 25-609): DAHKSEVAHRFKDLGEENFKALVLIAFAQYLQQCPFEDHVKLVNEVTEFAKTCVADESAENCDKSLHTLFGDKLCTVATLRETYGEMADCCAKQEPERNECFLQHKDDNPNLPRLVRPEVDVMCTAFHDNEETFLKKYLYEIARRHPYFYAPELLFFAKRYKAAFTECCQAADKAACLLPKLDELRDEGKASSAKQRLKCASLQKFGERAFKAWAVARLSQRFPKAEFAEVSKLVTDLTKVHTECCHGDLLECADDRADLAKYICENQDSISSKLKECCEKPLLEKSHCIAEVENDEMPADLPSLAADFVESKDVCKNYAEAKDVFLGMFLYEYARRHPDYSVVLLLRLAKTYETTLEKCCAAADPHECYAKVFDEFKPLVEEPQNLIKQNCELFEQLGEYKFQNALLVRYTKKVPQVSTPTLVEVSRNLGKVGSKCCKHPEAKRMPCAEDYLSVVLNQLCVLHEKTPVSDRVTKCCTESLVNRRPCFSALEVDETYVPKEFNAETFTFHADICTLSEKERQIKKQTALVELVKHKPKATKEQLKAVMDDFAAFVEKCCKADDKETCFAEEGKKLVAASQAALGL

In order of rising LogHSA:
1. CN1C(C(=O)Nc2ccccn2)=C(O)c2ccccc2S1(=O)=O [Piroxicam]  −5.301
2. CCOC(=O)C1=C(C)NC(C)=C(C(=O)OC)C1c1cccc([N+](=O)[O-])c1 (stereo not shown) [Nitrendipine]  −4.824
3. CC(C)NCC(O)COc1cccc2ccccc12 (stereo not shown) [Propranolol]  −4.028
4. CCCN(CCC)S(=O)(=O)c1ccc(C(=O)O)cc1 [Probenecid]  −4.004
5. CCCC(CCC)C(=O)O [Valproic acid]  −3.921
6. CO/N=C(\C(=O)N[C@@H]1C(=O)N2C(C(=O)O)=C(CSc3nc(=O)c(=O)[nH]n3C)CS[C@H]12)c1csc(N)n1 [Ceftriaxone]  −3.585
7. CN(C)CCCN1c2ccccc2CCc2ccccc21 [Imipramine]  −3.301
8. CC(C)(O/N=C(\C(=O)N[C@@H]1C(=O)N2C(C(=O)[O-])=C(C[n+]3ccccc3)CS[C@H]12)c1csc(N)n1)C(=O)O [Ceftazidime]  −2.495
9. CC(C)(C)NC[C@H](O)COc1nsnc1N1CCOCC1 [Timolol]  −2.000
10. CC(C)NCC(O)c1ccc(NS(C)(=O)=O)cc1 (stereo not shown) [Sotalol]  −1.678

same assay, conditions: log binding constant to human serum albumin, TRANSIL

In order of rising LogHSA:
1. C[C@]12CC[C@H]3[C@@H](CCC4=CC(=O)CC[C@@]43C)[C@@H]1CC[C@@H]2O [Testosteron]  −4.912
2. CC1(C)S[C@@H]2[C@H](NC(=O)Cc3ccccc3)C(=O)N2[C@H]1C(=O)O [Penicilin G]  −4.301
3. COC(=O)C1=C(C)NC(C)=C(C(=O)OC(C)C)C1c1cccc2nonc12 (stereo not shown) [Isradipin]  −4.301
4. Oxacepam  −4.000
5. CN(Cc1cnc2nc(N)nc(N)c2n1)c1ccc(C(=O)N[C@@H](CCC(=O)O)C(=O)O)cc1 [Metotrexate]  −3.796
6. CNCCCN1c2ccccc2CCc2ccccc21 [Despiramine]  −3.398
7. Clomipramin  −2.796
8. CCN(CC)CCNC(=O)c1ccc(NC(C)=O)cc1 [N-Acetylprocainamide]  −2.268
9. COc1cccc2c1C(=O)c1c(O)c3c(c(O)c1C2=O)C[C@@](O)(C(=O)CO)C[C@@H]3O[C@H]1C[C@H](N)[C@H](O)[C@H](C)O1 [Doxorubicin]  −1.886

tested on: not given; test: not given; conditions: water solubility, from the literature; cited from earlier work

In order of falling Solubility:
1. CN(Cc1cnc2nc(N)nc(N)c2n1)c1ccc(C(=O)N[C@@H](CCC(=O)O)C(=O)O)cc1 [Metotrexate]  26000 µg/mL (≈ 57200 µM)
2. CC(C)(C)NCC(O)COc1cccc2c1CC(O)C(O)C2 (stereo not shown) [Nadolol]  22400 µg/mL (≈ 72400 µM)
3. Cn1c(=O)c2[nH]cnc2n(C)c1=O [Theophiline]  2800 µg/mL (≈ 15500 µM)
4. CC(C)(C)NC[C@H](O)COc1nsnc1N1CCOCC1 [Timolol]  2741 µg/mL (≈ 8660 µM)
5. NC(=O)N1C(=O)/C(=C(\O)c2cccs2)c2cc(Cl)ccc21 [Tenidap]  2676 µg/mL (≈ 8340 µM)
6. OC(Cn1cncn1)(Cn1cncn1)c1ccc(F)cc1F [Fluconazole]  1086 µg/mL (≈ 3550 µM)
7. CO/N=C(\C(=O)N[C@@H]1C(=O)N2C(C(=O)O)=C(CSc3nc(=O)c(=O)[nH]n3C)CS[C@H]12)c1csc(N)n1 [Ceftriaxone]  958 µg/mL (≈ 1730 µM)
8. CCCC(CCC)C(=O)O [Valproic acid]  895 µg/mL (≈ 6210 µM)
9. CC(C)NCC(O)COc1cccc2ccccc12 (stereo not shown) [Propranolol]  609 µg/mL (≈ 2350 µM)
10. C=CCc1ccccc1OCC(O)CNC(C)C (stereo not shown) [Alprenolol]  547 µg/mL (≈ 2190 µM)
11. CN1C(C(=O)Nc2ccccn2)=C(O)c2ccccc2S1(=O)=O [Piroxicam]  521 µg/mL (≈ 1570 µM)
12. COc1cc2nc(N3CCN(C(=O)C4CCCO4)CC3)nc(N)c2cc1OC (stereo not shown) [Terazosin]  205 µg/mL (≈ 529 µM)
13. Oxacepam  179 µg/mL
14. C[C@]12C[C@H](O)[C@H]3[C@@H](CCC4=CC(=O)CC[C@@]43C)[C@@H]1CC[C@@H]2C(=O)CO [Corticosterone]  143 µg/mL (≈ 413 µM)
15. CCCCNC(=O)NS(=O)(=O)c1ccc(C)cc1 [Tolbutamid]  109 µg/mL (≈ 403 µM)
16. C[C@@H]1C[C@H]2[C@@H]3CCC4=CC(=O)C=C[C@]4(C)[C@@]3(F)[C@@H](O)C[C@]2(C)[C@@]1(O)C(=O)CO [Dexamethasone]  93 µg/mL (≈ 237 µM)
17. COc1cccc2c1C(=O)c1c(O)c3c(c(O)c1C2=O)C[C@@](O)(C(=O)CO)C[C@@H]3O[C@H]1C[C@H](N)[C@H](O)[C@H](C)O1 [Doxorubicin]  93 µg/mL (≈ 171 µM)
18. CCOC(=O)C1=C(C)NC(C)=C(C(=O)OC)C1c1cccc([N+](=O)[O-])c1 (stereo not shown) [Nitrendipine]  77 µg/mL (≈ 214 µM)
19. CC(CCc1ccccc1)NCC(O)c1ccc(O)c(C(N)=O)c1 (stereo not shown) [Labetalol]  73 µg/mL (≈ 222 µM)
20. CN1C(=O)CN=C(c2ccccc2F)c2cc([N+](=O)[O-])ccc21 [Flunitrazepam]  72.8 µg/mL (≈ 232 µM)
21. C[C@]12CC[C@H]3[C@@H](CCC4=CC(=O)CC[C@@]43C)[C@@H]1CC[C@@H]2O [Testosteron]  68 µg/mL (≈ 236 µM)
22. CC1(C)S[C@@H]2[C@H](NC(=O)Cc3ccccc3)C(=O)N2[C@H]1C(=O)O [Penicilin G]  50 µg/mL (≈ 150 µM)
23. COC(=O)C1=C(C)NC(C)=C(C(=O)OC(C)C)C1c1cccc2nonc12 (stereo not shown) [Isradipin]  49 µg/mL (≈ 132 µM)
24. CCCN(CCC)S(=O)(=O)c1ccc(C(=O)O)cc1 [Probenecid]  27.1 µg/mL (≈ 95 µM)
25. CN(C)CCCN1c2ccccc2CCc2ccccc21 [Imipramine]  1 µg/mL (≈ 3.57 µM)
26. CNCCCN1c2ccccc2CCc2ccccc21 [Despiramine]  0.99 µg/mL (≈ 3.72 µM)
27. Clomipramin  0.294 µg/mL

For `CC(C)(O/N=C(\C(=O)N[C@@H]1C(=O)N2C(C(=O)[O-])=C(C[n+]3ccccc3)CS[C@H]12)c1csc(N)n1)C(=O)O` [Ceftazidime], the Solubility is listed as greater than 500 µg/mL.
For `CCN(CC)CCNC(=O)c1ccc(NC(C)=O)cc1` [N-Acetylprocainamide], the Solubility is listed as greater than 1000 µg/mL.

tested on: not given; test: not given; conditions: in vivo; cited from earlier work

In the case of itraconazoles, the passive oral absorption is given as “can be passively absorbed well”.

tested on: not listed separately; test: membrane affinity as a measure of the lipophilicity (TRANSIL technology); type: physicochemical; conditions: not given

In order of falling LogMA:
1. Clomipramin  4.104
2. COC(=O)C1=C(C)NC(C)=C(C(=O)OC(C)C)C1c1cccc2nonc12 (stereo not shown) [Isradipin]  3.699
3. CC(CCc1ccccc1)NCC(O)c1ccc(O)c(C(N)=O)c1 (stereo not shown) [Labetalol]  3.620
4. CN(C)CCCN1c2ccccc2CCc2ccccc21 [Imipramine]  3.190
5. CC(C)NCC(O)COc1cccc2ccccc12 (stereo not shown) [Propranolol]  3.146
6. C[C@]12CC[C@H]3[C@@H](CCC4=CC(=O)CC[C@@]43C)[C@@H]1CC[C@@H]2O [Testosteron]  2.826
7. C=CCc1ccccc1OCC(O)CNC(C)C (stereo not shown) [Alprenolol]  2.699
8. C[C@]12C[C@H](O)[C@H]3[C@@H](CCC4=CC(=O)CC[C@@]43C)[C@@H]1CC[C@@H]2C(=O)CO [Corticosterone]  2.531
9. CN1C(=O)CN=C(c2ccccc2F)c2cc([N+](=O)[O-])ccc21 [Flunitrazepam]  2.477
10. Oxacepam  2.342
11. COc1cccc2c1C(=O)c1c(O)c3c(c(O)c1C2=O)C[C@@](O)(C(=O)CO)C[C@@H]3O[C@H]1C[C@H](N)[C@H](O)[C@H](C)O1 [Doxorubicin]  2.322
12. CN1C(C(=O)Nc2ccccn2)=C(O)c2ccccc2S1(=O)=O [Piroxicam]  2.079
13. COc1cc2nc(N3CCN(C(=O)C4CCCO4)CC3)nc(N)c2cc1OC (stereo not shown) [Terazosin]  1.785
14. CC(C)(C)NC[C@H](O)COc1nsnc1N1CCOCC1 [Timolol]  1.477
15. CCCN(CCC)S(=O)(=O)c1ccc(C(=O)O)cc1 [Probenecid]  1.322
16. CC(C)NCC(O)c1ccc(NS(C)(=O)=O)cc1 (stereo not shown) [Sotalol]  1.301
17. CN(Cc1cnc2nc(N)nc(N)c2n1)c1ccc(C(=O)N[C@@H](CCC(=O)O)C(=O)O)cc1 [Metotrexate]  1.176
18. CCN(CC)CCNC(=O)c1ccc(NC(C)=O)cc1 [N-Acetylprocainamide]  1.176
19. CC1(C)S[C@@H]2[C@H](NC(=O)Cc3ccccc3)C(=O)N2[C@H]1C(=O)O [Penicilin G]  1.041
20. CCCC(CCC)C(=O)O [Valproic acid]  1.041
21. CC(C)(O/N=C(\C(=O)N[C@@H]1C(=O)N2C(C(=O)[O-])=C(C[n+]3ccccc3)CS[C@H]12)c1csc(N)n1)C(=O)O [Ceftazidime]  1.000
22. CO/N=C(\C(=O)N[C@@H]1C(=O)N2C(C(=O)O)=C(CSc3nc(=O)c(=O)[nH]n3C)CS[C@H]12)c1csc(N)n1 [Ceftriaxone]  0.903
23. Cn1c(=O)c2[nH]cnc2n(C)c1=O [Theophiline]  0.886
24. CC(C)(C)NCC(O)COc1cccc2c1CC(O)C(O)C2 (stereo not shown) [Nadolol]  0.602
